{
  "source": "patent US12565665B2",
  "about": "“Compositions and methods for controlled mRNA translation and stability” (TRUSTEES OF BOSTON UNIVERSITY, priority 2022, dated 2026)",
  "assay_type_in_all_cases": "cell-based, human",
  "key": {"[1]": {"test_system": "mRNA reporters containing different number of stop codons and/or MS2 elements", "test": "Stop codon editing assay by Western blot", "details": "HEK293FT cells; reporters with different numbers of stop codons and RNA elements", "from_the_text": "HEK 293 FT cells were co-transfected with plasmids expressing the reporter containing 2 UAG stop codons in the hairpin and a pcDNA3 construct encoding a fusion protein composed of MCP, ADAR2-DD (E488Q), and TagBFP."}, "[2]": {"test_system": "Non-Stop-Decay reporter construct", "test": "Non-stop decay OFF-switch reporter (dTomato-BiCMV-EGFPd2)", "details": "biCMV reporter with 2 UAG stop codons; 48-hours post-transfection", "from_the_text": "In order to do so, the inventors designed a synthetic transcript (FIG. 2A) where there is an open reading frame (green), 1 or more stop codons in an RNA-hairpin (dark gray), a specific RNA element (light gray), and a 3′UTR with no downstream stop codons prior to the polyadenylate (polyA) tail. The inventors created a reporter plasmid that contained a bidirectional CMV driving the expression dTomato on one transcript and EGFPd2, an editable stop codon, an MS2 operator, and a mutated rabbit-β-globin 3′UTR/poly A signal sequence lacking additional stop codons on the other transcript (FIG. 2B). In the absence of ADAR-DD activity, both dTomato and EGFPd2 should be translated and expressed. However, coexpression of MCP-ADAR2 should lead to editing of the only in-frame stop codon and the initiation of an endogenous process called non-stop decay, whereby the translating ribosome stalls on the polyA-tail and recruits Ski7 followed by exonucleases to destroy the mRNA (FIG. 2C). In this process, proteosomal degradation of the nascent, unreleased polypeptide also occurs. […]\nAs a final test, the inventors used the MS1(117A)/Mcl-1 variant with the dTomato-BiCMV-EGFPd2 reporter plasmid (FIG. 2B), which should lose EGFPd2 fluorescence with ADAR editing of the final stop codon."}, "[3]": {"test_system": "editable AUG reporters", "test": "Destruction of an AUG start codon to IUG, EGFPd2/dTomato reporter, flow cytometry", "details": "48 hours post-transfection; n=3", "from_the_text": "To test this, an ADAR substrate was designed similar to the substrates tested above, but with an AUG codon in a dsRNA hairpin with a mismatch to promote the deamination of the correct adenine (see e.g., FIG. 28b). This scheme was similarly tested with both the high affinity MS2-C and lower affinity MS2-A variants by cloning these substrates into a pcDNA3 vector with a bidirectional CMV driving the expression of dTomato and EGFPd2 (see e.g., FIG. 28c).\nHEK cells were co-transfected with the two different reporter constructs (MS2-C and MS2-A) and cither filler DNA, MCP-dADAR, or MCP-ADAR. 48 hours post-transfection, cells were lifted and analyzed by flow cytometry. Transfected cells were gated by dTomato, and the median EGFPd2-to-dTomato ratio for the population was calculated per replicate (n=3) by FLOWJO. 2-Way ANOVA was performed to determine significance."}, "[4]": {"test_system": "T2A (G18R) construct", "test": "Sense codon editing (AGG to IGG) of T2A (G18R), UAS-H2B-mCherry reporter cells, flow cytometry", "details": "30 ng ADAR construct, n=3", "from_the_text": "To test inducible ADAR recoding of a protein's amino acid composition, a construct was designed that contained: a CD8 signal peptide, an HA epitope tag, the self-labeling Halo Tag, a mutant variant of the thosea asigna virus 2A self-cleaving peptide that is defective for ribosome skipping (Gly 18Arg mutation), the DNA binding domain of Gal4, and a 4× repeat of the transcriptional activation domain from herpes virus (VP64) (see e.g., FIG. 37a). The penultimate glycine in 2A peptides is invariant (see e.g., FIG. 37b) and any mutation leads to defective ribosome skipping. The codon for the G18R residue (AGG) is in a dsRNA hairpin with the high affinity MS2-C motif, which acts as a substrate for targeted MCP-ADAR. In the absence of ADAR editing, the defective T2A sequence will lead to the topological sequestering of the Gal4-VP64 transcription factor in the ER lumen due to the fusion to the secreted HaloTag (see e.g., FIG. 37c). Upon ADAR editing of the Arg18 codon to glycine (AGG to IGG), the T2A regains the function of ribosome skipping. This leads to the protein domains downstream of the T2A sequence to be translated as a separate polypeptide in the cytoplasm, whereby the GAL4-VP64 transcription factor translocate to the nucleus and turn on the expression of a fluorescent H2B-mCherry reporter (see e.g., FIG. 37c).\nTo test this, an in-house clonal HEK293FT cell line that contains an integrated UAS-H2B-mCherry reporter was co-transfected with the editable T2A (also called T2A*) construct (3 ng, 0.3 ng and 0.03 ng) and cither MCP-dADAR or MCP-ADAR (30 ng). A GAL4-VP64 positive control was also transfected into HEK cells. One day post-transfection, cells were lifted and analyzed by flow cytometry. Transfected cells were gated by TagBFP, the median H2B-mCherry fluorescence for the population was calculated and H2B-mCherry positive populations within the transfected cells were determined by the percentage of cells above 0.5% of non-transfected control cells per replicate (n=3) by FLOWJO."}, "[5]": {"test_system": "T2A* construct", "test": "Western blot (FLAG) of T2A* construct co-transfected with MCP-ADAR constructs", "details": "3 ng T2A* and 30 ng ADAR construct; lysates 48 hours later", "experimental": "Additionally, the clonal HEK line was co-transfected with 3 ng of the T2A* construct and 30 ng of either filler DNA, MCP-dADAR, or MCP-ADAR. 48 hours later lysates were collected with 1×LDS-PAGE loading buffer (THERMOFISHER) on ice. The samples were sonicated, centrifuged, and boiled at 70° C. for 10 min after the addition of 1×Reducing Agent (THERMOFISHER). The samples were run on a 4%-12% bis-tris polyacrylamide gel at 175V for 45 minutes, and the samples were transferred onto a nitrocellulose membrane using the IBLOT (THERMOFISHER). Samples were probed for FLAG tag (Direct-Blot™ HRP anti-[…] Tag Antibody, “[…]” is disclosed as SEQ ID NO: 406) and GAPDH-loading control (Direct-Blot™ HRP anti-GAPDH Antibody) respectively."}},
  "data": [
    {"substance": "MCP-linker-ADAR2(E488Q)-TagBFP [MCP-ADAR]", "values": [
      {"measurement": "off-target editing of stop-codon reporters, Western blot (HA-mNeonGreen)", "setting": "[1]", "result": "Almost no off-target editing"},
      {"measurement": "EGFPd2 expression relative to catalytically inactive DD, fluorescence microscopy", "setting": "[2]", "result": "greatly decreased EGFPd2 expression levels"},
      {"measurement": "relative EGFPd2 levels, active vs inactive ADAR, MS2-A based AUG construct", "setting": "[3]", "result": "further, significant decrease in relative EGFPd2 levels"},
      {"measurement": "translational efficiency, MS2-A based AUG construct", "setting": "[3]", "result": "significant decrease in translational efficiency"},
      {"measurement": "population expressing any H2B-mCherry compared to dADAR, 0.03 ng T2A*", "setting": "[4]; 0.03 ng T2A* construct", "result": "significantly higher"},
      {"measurement": "population expressing any H2B-mCherry compared to dADAR, 0.3 ng T2A*", "setting": "[4]; 0.3 ng T2A* construct", "result": "significantly higher"},
      {"measurement": "median H2B-mCherry expression compared to inactive MCP-dADAR control", "setting": "[4]; 3 ng T2A* construct, one day post-transfection", "result": "significant increase"},
      {"measurement": "FLAG staining of the main HaloTag-T2A*-FLAG-Gal4-VP64 fusion product (~67 kDa)", "setting": "[5]", "result": "reduced staining"}
    ]}
  ]
}
